Assay results as given in BigSolDB 2.1.

Cc1nc2n(c(=O)c1CCN1CCC(c3noc4cc(F)ccc34)CC1)CCCC2O (stereo not given)
solubility (mole fraction)
Conditions	288.15 K	293.15 K	298.15 K	303.15 K	308.15 K	313.15 K	318.15 K	323.15 K	328.15 K
in 1,4-dioxane	0.00042	0.000595	0.000832	0.00115	0.00159	0.00214	0.00292	0.00382	0.00495
in THF	0.000399	0.00055	0.000757	0.00101	0.00134	0.00177	0.00232	0.00312	0.00391
in acetone	6.42e-05	8.92e-05	0.000126	0.000171	0.000233	0.000314	0.000438	0.000556	0.000702
in acetonitrile	2.45e-05	3.58e-05	5.16e-05	7.32e-05	0.000101	0.000143	0.000195	0.000263	0.00035
in ethanol	6.58e-05	9.25e-05	0.000129	0.000178	0.000236	0.000338	0.00045	0.00059	0.00079
in ethyl acetate	5.95e-05	8.43e-05	0.000118	0.000164	0.000225	0.000311	0.000415	0.00056	0.000742
in isopropanol	2.65e-05	3.97e-05	5.8e-05	8.16e-05	0.00013	0.000179	0.000269	0.000363	0.000502
in methanol	0.000103	0.000143	0.000192	0.00026	0.000347	0.000463	0.000618	0.000815	0.00105
in methyl acetate	7.29e-05	0.000101	0.000141	0.000196	0.000266	0.000361	0.000503	0.000643	0.000814
in n-butanol	8.99e-05	0.000128	0.000179	0.000249	0.000347	0.000443	0.000587	0.000829	0.00115
in n-butyl acetate	5.19e-05	7.43e-05	0.000105	0.000147	0.000204	0.000282	0.000381	0.000514	0.000692
in n-hexanol	7.11e-05	0.00012	0.000175	0.000244	0.000332	0.000465	0.000682	0.000958	0.00125
in n-pentanol	9.07e-05	0.000129	0.000184	0.000258	0.000364	0.000553	0.000742	0.000963	0.00128
in n-propanol	7.03e-05	0.000102	0.000133	0.000214	0.000298	0.000391	0.00056	0.000768	0.00107
in n-propyl acetate	5.47e-05	7.82e-05	0.000111	0.000155	0.000214	0.000294	0.000398	0.000537	0.000728
